According to US8815840B2, “Carbazole and carboline kinase inhibitors” (Bristol-Myers Squibb Company, priority 2008, dated 2014):
Structures can show the parent of a compound that is named as a salt.

Target: JAK2 (Homo sapiens (Human), UniProt O60674)
Experiment: JAK2 Tyrosine Kinase Assay
Type: biochemical
Settings: ATP 30 μM; JAK2 1 nM; 60 min at room temperature
Procedure: JAK2 Tyrosine Kinase Assay
The assays were performed in V-bottom 384-well plates. […] The reaction was initiated by the combination of JAK2 with substrates and test compounds. The reaction was incubated at room temperature for 60 min. and terminated by adding 45 μl of 35 mM EDTA to each sample. The reaction mixture was analyzed on the Caliper LABCHIP® 3000 by electrophoretic separation of the fluorescent substrate and phosphorylated product. […] Compounds were dissolved at 10 mM in dimethylsulfoxide (DMSO) and evaluated at eleven concentrations, each in duplicate. IC50 values were derived by non-linear regression analysis

JAK2, sequence (O60674 whole entry): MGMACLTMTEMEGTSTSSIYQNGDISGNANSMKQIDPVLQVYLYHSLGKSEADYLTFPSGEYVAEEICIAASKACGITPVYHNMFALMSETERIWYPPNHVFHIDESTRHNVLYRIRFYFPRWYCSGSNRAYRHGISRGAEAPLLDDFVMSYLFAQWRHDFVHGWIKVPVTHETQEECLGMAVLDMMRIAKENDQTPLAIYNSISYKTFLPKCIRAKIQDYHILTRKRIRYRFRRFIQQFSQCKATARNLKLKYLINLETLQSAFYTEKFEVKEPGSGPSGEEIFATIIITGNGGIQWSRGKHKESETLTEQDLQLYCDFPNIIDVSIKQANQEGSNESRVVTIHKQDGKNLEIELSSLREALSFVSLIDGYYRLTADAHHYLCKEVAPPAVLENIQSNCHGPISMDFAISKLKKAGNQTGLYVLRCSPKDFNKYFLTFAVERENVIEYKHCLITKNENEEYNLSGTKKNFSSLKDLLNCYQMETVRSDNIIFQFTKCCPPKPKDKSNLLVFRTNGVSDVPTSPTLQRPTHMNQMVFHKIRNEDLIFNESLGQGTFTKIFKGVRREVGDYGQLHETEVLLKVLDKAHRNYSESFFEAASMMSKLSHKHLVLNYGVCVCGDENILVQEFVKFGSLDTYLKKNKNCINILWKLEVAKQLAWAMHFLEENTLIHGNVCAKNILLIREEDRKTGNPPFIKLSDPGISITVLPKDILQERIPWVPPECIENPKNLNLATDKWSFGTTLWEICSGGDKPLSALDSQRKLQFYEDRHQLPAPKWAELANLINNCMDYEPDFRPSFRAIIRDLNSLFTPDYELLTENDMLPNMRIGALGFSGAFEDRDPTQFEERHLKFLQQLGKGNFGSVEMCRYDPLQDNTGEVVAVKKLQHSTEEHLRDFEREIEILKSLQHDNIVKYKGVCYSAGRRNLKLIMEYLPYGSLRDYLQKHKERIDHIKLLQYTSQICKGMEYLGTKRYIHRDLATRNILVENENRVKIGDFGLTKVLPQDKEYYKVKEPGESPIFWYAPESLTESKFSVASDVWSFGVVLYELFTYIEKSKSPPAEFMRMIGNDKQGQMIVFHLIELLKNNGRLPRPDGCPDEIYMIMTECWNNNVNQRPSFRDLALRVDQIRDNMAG

SMILES | IC50 [nM]
CC(C)Oc1ccc2[nH]c3c(C(N)=O)cc(-c4ccc(Cl)c(Cl)c4)cc3c2c1 [Example 140, 3-(3,4-Dichlorophenyl)-6-isopropoxy-9H-carbazole-1-carboxamide] | 150
COc1ccc(-c2cc(C(N)=O)c3[nH]c4cc(C(=O)N5CC[C@H](N(C)C)C5)ccc4c3n2)cc1F [Example 211, (S)-7-(3-(Dimethylamino)pyrrolidine-1-carbonyl)-2-(3-fluoro-4-methoxyphenyl)-5H-pyrido[3,2-b]indole-4-carboxamide] | < 1
COCCN1CCN(Cc2ccc(-c3cc(C(N)=O)c4[nH]c5cc(N6CCOCC6)ccc5c4n3)s2)CC1 [Example 373, 2-(5-((4-(2-methoxyethyl)piperazin-1-yl)methyl)thiophen-2-yl)-7-morpholino-5H-pyrido[3,2-b]indole-4-carboxamide] | 6
NC(=O)c1cc(-c2ccc(Cl)c(Cl)c2)cc2c1[nH]c1ccc(C(=O)N3CCOC(CO)C3)cc12 (stereo not drawn) [Example 180, 3-(3,4-dichlorophenyl)-6-(2-(hydroxymethyl)morpholine-4-carbonyl)-9H-carbazole-1-carboxamide] | 2
CN1CCN(C(=O)c2ccc3c(c2)[nH]c2c(C(N)=O)cc(-c4ccc(Cl)nc4)cc23)CC1 [Example 76, 3-(6-chloro-3-pyridinyl)-7-((4-methyl-1-piperazinyl)carbonyl)-9H-carbazole-1-carboxamide] | 7
NC(=O)c1cc(-c2ccc(OC3CCNCC3)c(Cl)c2)nc2c1[nH]c1cc(N3CCOCC3)ccc12 [Example 360, 2-(3-chloro-4-(piperidin-4-yloxy)phenyl)-7-morpholino-5H-pyrido[3,2-b]indole-4-carboxamide] | 7
Cc1ccc(-c2cc(C(N)=O)c3[nH]c4ccc(C(=O)O)cc4c3c2)c(F)c1 [Example 424, 8-Carbamoyl-6-(2-fluoro-4-methylphenyl)-9H-carbazole-3-carboxylic acid] | 1
COc1ccc(-c2cc(C(N)=O)c3[nH]c4ccc(C(=O)N5CCC[C@H](O)C5)cc4c3c2)cc1F [Example 190, (S)-3-(3-fluoro-4-methoxyphenyl)-6-(3-hydroxypiperidine-1-carbonyl)-9H-carbazole-1-carboxamide] | 2
NC(=O)c1cc(-c2ccc(Cl)c(Cl)c2)cc2c1[nH]c1ccc(C(=O)N[C@@H]3CCNC3)cc12 [Example 49, 3-(3,4-dichlorophenyl)-N^6-((3R)-3-pyrrolidinyl)-9H-carbazole-1,6-dicarboxamide] | 6
COCCCN1CCN(C(=O)c2ccc3c(c2)[nH]c2c(C(N)=O)cc(-c4cccc(OC)c4)cc23)CC1 [Example 106, 3-(3-methoxyphenyl)-7-((4-(3-methoxypropyl)-1-piperazinyl)carbonyl)-9H-carbazole-1-carboxamide] | < 1
CN1CCN(c2ccc(-c3cc(C(N)=O)c4[nH]c5cc(C(=O)N6CCOCC6)ccc5c4n3)cc2)CC1 [Example 468, 2-(4-(4-methylpiperazin-1-yl)phenyl)-7-(morpholine-4-carbonyl)-5H-pyrido[3,2-b]indole-4-carboxamide] | 6
NC(=O)c1nc(-c2ccccc2)cc2c1[nH]c1cc(C(=O)N3CCOCC3)ccc12 [Example 469, 7-(Morpholine-4-carbonyl)-3-phenyl-9H-pyrido[3,4-b]indole-1-carboxamide] | 11
NC(=O)c1cc(-c2ccc(OC(F)(F)F)cc2)cc2c1[nH]c1cc(C(=O)N3CCOCC3)ccc12 [Example 151, 7-(4-morpholinylcarbonyl)-3-(4-(trifluoromethoxy)phenyl)-9H-carbazole-1-carboxamide] | 6
CN1CCN(C(=O)c2ccc3c(c2)[nH]c2c(C(N)=O)cc(-c4ccc(Cl)c(Cl)c4)cc23)CC1 [Example 61, 3-(3,4-dichlorophenyl)-7-((4-methyl-1-piperazinyl)carbonyl)-9H-carbazole-1-carboxamide] | 6
NC(=O)c1cc(-c2ccc(CN3CCOCC3)cc2)nc2c1[nH]c1cc(N3CCS(=O)(=O)CC3)ccc12 [Example 323, 7-(1,1-Dioxido-4-thiomorpholinyl)-2-(4-(4-morpholinylmethyl)phenyl)-5H-pyrido[3,2-b]indole-4-carboxamide] | 1
COc1ccc(-c2nc(C(N)=O)c3[nH]c4cc(OC)ccc4c3n2)cc1 [Example 210, 7-Methoxy-2-(4-methoxyphenyl)-5H-pyrimido[5,4-b]indole-4-carboxamide] | 170
COc1ccc(-c2cc(C(N)=O)c3[nH]c4ccc(C(=O)N5CCC(O)CC5)cc4c3c2)cc1F [Example 197, 3-(3-fluoro-4-methoxyphenyl)-6-(4-hydroxypiperidine-1-carbonyl)-9H-carbazole-1-carboxamide] | 1
COc1cc(-c2cc(C(N)=O)c3[nH]c4ccc(C(=O)N5CCOC(CO)C5)cc4c3c2)cc(OC)c1OC (stereo not drawn) [Example 183, 6-(2-(hydroxymethyl)morpholine-4-carbonyl)-3-(3,4,5-trimethoxyphenyl)-9H-carbazole-1-carboxamide] | 160

SMILES | IC50 [nM]
COc1cccc(-c2cc(C(N)=O)c3[nH]c4cccnc4c3c2)c1 [Example 204, 8-(3-Methoxyphenyl)-5H-pyrido[3,2-b]indole-6-carboxamide, HCl] | 29
CNC(=O)c1cc(-c2ccc(OC)cc2)nc2c1[nH]c1cc(OC)ccc12 [Example 128, 7-Methoxy-2-(4-methoxyphenyl)-N-methyl-5H-pyrido[3,2-b]indole-4-carboxamide] | 1230
COc1ccc(-c2cc(C(N)=O)c3[nH]c4cc(C(=O)O)ccc4c3c2)cc1F [Example 395, 8-Carbamoyl-6-(3-fluoro-4-methoxyphenyl)-9H-carbazole-2-carboxylate] | 111
NC(=O)c1cc(-c2ccc(N3CCOCC3)nc2)nc2c1[nH]c1cc(N3CCOCC3)ccc12 [Example 504, 7-morpholino-2-(6-morpholinopyridin-3-yl)-5H-pyrido[3,2-b]indole-4-carboxamide] | 1
COC(=O)c1ccc2c(c1)[nH]c1c(C(N)=O)cc(-c3cccc(OC)c3)cc12 [Example 142, Methyl 8-carbamoyl-6-(3-methoxyphenyl)-9H-carbazole-2-carboxylate] | 310
COc1cccc(-c2cc(C(N)=O)c3[nH]c4cc(C(=O)N5CCN(Cc6cccnc6)CC5)ccc4c3c2)c1 [Example 88, 3-(3-methoxyphenyl)-7-((4-(3-pyridinylmethyl)-1-piperazinyl)carbonyl)-9H-carbazole-1-carboxamide] | 6
COc1ccc(-c2cc(C(N)=O)c3[nH]c4cc(C(=O)N5CCN(C)CC5)ccc4c3c2)cc1F [Example 79, 3-(3-fluoro-4-methoxyphenyl)-7-((4-methyl-1-piperazinyl)carbonyl)-9H-carbazole-1-carboxamide] | 6
CN(C)CCNC(=O)c1ccc2[nH]c3c(C(N)=O)cc(-c4ccc(Cl)c(Cl)c4)cc3c2c1 [Example 56, 3-(3,4-dichlorophenyl)-N^6-(2-(dimethylamino)ethyl)-9H-carbazole-1,6-dicarboxamide] | 6
NC(=O)c1cc(N2CCC(N)CC2)nc2c1[nH]c1cc(C(=O)N3CCOCC3)ccc12 [Example 405, 2-(4-aminopiperidin-1-yl)-7-(morpholine-4-carbonyl)-5H-pyrido[3,2-b]indole-4-carboxamide] | 636
NC(=O)c1cc(-c2ccc(C3CC3)nc2)nc2c1[nH]c1cc(N3CCOCC3)ccc12 [Example 499, 2-(6-cyclopropylpyridin-3-yl)-7-morpholino-5H-pyrido[3,2-b]indole-4-carboxamide] | 1
NC(=O)c1cc(-c2ccc(Cl)c(Cl)c2)cc2c1[nH]c1ccc(C(=O)NCCN3CCOCC3)cc12 [Example 51, 3-(3,4-dichlorophenyl)-N^6-(2-(4-morpholinyl)ethyl)-9H-carbazole-1,6-dicarboxamide] | 6
NC(=O)c1cc(-c2ncccn2)cc2c1[nH]c1cc(C(=O)N3CCOCC3)ccc12 [Example 430, 7-(Morpholine-4-carbonyl)-3-(pyrimidin-2-yl)-9H-carbazole-1-carboxamide] | 1
N#Cc1cc(-c2cc(C(N)=O)c3[nH]c4cc(C(=O)N5CCOCC5)ccc4c3c2)ccc1F [Example 563, 3-(3-cyano-4-fluorophenyl)-7-(4-morpholinylcarbonyl)-9H-carbazole-1-carboxamide] | 1010
NC(=O)c1cc(-c2ccc(F)c(F)c2)nc2c1[nH]c1cc(C(=O)N3CCOCC3)ccc12 [Example 216, 2-(3,4-difluorophenyl)-7-(4-morpholinylcarbonyl)-5H-pyrido[3,2-b]indole-4-carboxamide] | 7
Cc1cc(-c2cc(C(N)=O)c3[nH]c4cc(N5CCOCC5)ccc4c3n2)ccc1Cl [Example 501, 2-(4-chloro-3-methylphenyl)-7-morpholino-5H-pyrido[3,2-b]indole-4-carboxamide] | 7
COc1cc(-c2cc(C(N)=O)c3[nH]c4cc(C(=O)N5CCN(C)CC5)ccc4c3c2)ccc1NC(=O)OC(C)(C)C [Example 73, tert-butyl (4-(1-carbamoyl-7-((4-methyl-1-piperazinyl)carbonyl)-9H-carbazol-3-yl)-2-methoxyphenyl)carbamate] | 160
NC(=O)c1cc(-c2cccc(Cl)c2)cc2c1[nH]c1ccc(C(=O)N3CCOC(CO)C3)cc12 (stereo not drawn) [Example 185, 3-(3-chlorophenyl)-6-(2-(hydroxymethyl)morpholine-4-carbonyl)-9H-carbazole-1-carboxamide] | 1
Cc1cc(-c2cc(C(N)=O)c3[nH]c4cc(C5CCN(C(=O)OC(C)(C)C)CC5)ccc4c3c2)ccc1CN1CCOCC1 [Example 486, tert-Butyl 4-(8-carbamoyl-6-(3-methyl-4-(morpholinomethyl)phenyl)-9H-carbazol-2-yl)piperidine-1-carboxylate] | 818
